The values that follow come from patent US6703400B2, “Methods for treating multidrug resistance” (Schering Corporation, priority 2001, dated 2004).

The target in series [1] is MDR1 gene product transport enzyme (P-gp) in CR1R12 cell membranes (Cricetulus griseus, UniProt P21448). In words: P-gp-mediated ATP hydrolysis (phosphate release) assay with CR1R12 membrane microsomes. In kind it is biochemical, rodent. The source says: ATP hydrolysis as nmol/min/mg is plotted against SCH66336 concentration.
The second Example monitored the consumption of ATP, a high-energy biological energy source required for transporter enzyme function. ATP is converted to two other chemicals—ADP and inorganic phosphate—during the P-gp mediated transport porcess.
The method was modified to be carried out in a 96-well microplate.
CR1R12 cell membranes enriched with the MDR1 gene product transport enzyme were used for preparation of membrane microsomes. Cells were washed with complete Hanks' buffer before being resuspended in 10 ml lysis buffer (Tris-25 HCl, 50 mM; mannitol, 50 mM; EGTA, 2 mM; and dithiothreitol, 2 mM; pH 7.0 at 25° C.) containing protease inhibitors (phenylmethylsulfonyl fluoride, 1 mM; aprotinin, 10 μg/ml; leupeptin, 10 μg/ml). All subsequent steps were performed at 4° C. The cells were lysed by nitrogen cavitation (Parr Instrument Co., Moline, Ill.) at 500 psi for 15 min twice. Nuclei and mitochondria were sedimented by centrifugation at 4000×g for 10 min. The microsomal membrane fraction was then sedimented by centrifugation at 100,000×g for 60 min. […] Aliquots of membrane microsomes were rapidly frozen and stored at −80 ° C. until analysis.
The microsomes were thawed on ice prior to diluting to 3.5 μg protein per well in ice-cold ATPase buffer (sodium ATP, 3 mM; KCl, 50 mM; MgSO4, 10 mM; dithiothreitol, 3 mM; Tris-HCl, 50 mM; pH 7.0) containing 0.5 mM EGTA (to inhibit Ca-ATPase), 0.5 mM ouabain (to inhibit the Na/K-ATPase), and 3 mM sodium azide (to inhibit the mitochondrial ATPase). The total incubation volume including the various inhibitors was 100 μl. The incubation reaction was initiated by transferring the plate from ice to 37° C. and incubating for 30 min; the reaction was terminated by the addition of 50 μl 12% SDS solution at room temperature, followed by the addition of 50 μl of a mixture solution of (equal volumes) 18% fresh ascorbic acid in 1N HCl and 3% ammonium molybdate in 1 N HCl. After 4 min, 100 μl of a solution of 2% sodium citrate and 2% sodium meta-arsenite in 2% acetic acid was added to fix the color formation. […] The respective values for background with ATPase assay buffer alone were obtained in parallel and subtracted from the values for experimental samples.

For the next series, the target named is P-gp (human MDR1) (Homo sapiens, UniProt P08183). In words: in vitro.
In series [2] the target is T1, P-gp efflux pump in CR1R12 cells (Cricetulus griseus, UniProt P21448). In words: cell-based.
Protocol: (§1) The efflux phase or incubation was 30 min in all cases. The average number of cells per assay was 10,000. The function for the line through the data is the Hill equation: v=VmaxSn/(K′+Sn). The parameters IC50 and the Hill coefficient along with the standard deviation are shown on the respective graphs.
(§2) CR1R12 cell line, provided by Dr. Alan Senior (Univ. of Rochester), was maintained in complete α-minimum essential medium (α-MEM) supplemented with 10% FBS, penicillin/streptomycin (50 units/50 μg/ml) in a 5% CO2-95% air atmosphere at 37° C. Colchicine (0.5 μg/ml) was added to the culture medium. Cells were grown to 80-90% confluency and treated with trypsin-EDTA before subculturing.
(§3) Fluorescence measurements of individual cells were performed using a Becton-Dickinson FACScalibur fluorescence-activated cell sorter (San Jose, Calif.), equipped with an ultraviolet argon laser (excitation at 488 nm, emission at 530/30 and 570/30 nm band-pass filters). […]
(§4) Cell viability was assessed using exclusion of 0.4% trypan blue as well as propidium iodide staining. Dead cells in which propidium iodide was bound to double strands of DNA or RNA were detected in certain regions of the cytometry dot plots and not included in the final data calculations.
(§5) The DNR fluorescence intensity of individual cells was recorded as histograms. […]
Series [3] concerns the target T2, gene product of human MDR1 (P-gp) in NIH 3T3 G185 cells (Homo sapiens, UniProt P08183). In words: cell-based.
Protocol: (§6) The efflux phase or incubation was 30 min in all cases. The average number of cells per assay was 10,000.
(§7) CR1R12 cell line, provided by Dr. Alan Senior (Univ. of Rochester), was maintained in complete α-minimum essential medium (α-MEM) supplemented with 10% FBS, penicillin/streptomycin (50 units/50 μg/ml) in a 5% CO2-95% air atmosphere at 37° C. Colchicine (0.5 μg/ml) was added to the culture medium. Cells were grown to 80-90% confluency and treated with trypsin-EDTA before subculturing. The NIH 3T3 G185 cell line presenting the gene product of human MDR1 was licensed from NIH and maintained in DMEM.
(§8) Fluorescence measurements of individual cells were performed using a Becton-Dickinson FACScalibur fluorescence-activated cell sorter (San Jose, Calif.), equipped with an ultraviolet argon laser (excitation at 488 nm, emission at 530/30 and 570/30 nm band-pass filters). Analysis was gated to include single cells on the basis of forward and side light-scatter and was based on acquisition of data from 10,000 cells. […] A direct functional assay for the P-gp efflux pump in CR1R12 cells was performed with the flow cytometer (Wang et al., 2000).
as §4
(§9) The DNR fluorescence intensity of individual cells was recorded as histograms. The mean fluorescence intensity of 10,000 cells was used for comparison among different conditions. Vanadate was selected as a positive control to normalize the measurements because it can maximally inactivate the P-gp efflux pump. Relative fluorescence was used for quantitation and comparison among different compounds. The relative fluorescence (% inactivation) represents a ratio obtained through the following formula: the geometric mean fluorescence of a discrete sample divided by the geometric mean fluorescence in the presence of 5 mM vanadate, times 100, or expressed as [formula]
The target in series [4] is T2, gene product of human MDR1 (P-gp) in NIH 3T3 G185 cells. As to conditions: IC50 G185 vs IC50 CR1R12.
Protocol: as §6, §7, §8, §4, §9
Series [5] has as its target T1, P-gp efflux pump in CR1R12 cells. The note with it: compared with verapamil.
Protocol: as §1, §2, §3, §4, §5
The target in another series is P-gp (Cricetulus griseus, UniProt P21448). In words: Retention of rhodamine 123 (Rho), fluorescent P-gp substrate, in cells.

What is called IC50 is the concentration that inhibits the measured activity by half.

The structures appear in SMILES notation. Where two headings read alike, the source gives them in different places. Bounds are passed on as bounds.

Chain of MDR1 gene product transport enzyme (P-gp) in CR1R12 cell membranes (P21448 whole entry): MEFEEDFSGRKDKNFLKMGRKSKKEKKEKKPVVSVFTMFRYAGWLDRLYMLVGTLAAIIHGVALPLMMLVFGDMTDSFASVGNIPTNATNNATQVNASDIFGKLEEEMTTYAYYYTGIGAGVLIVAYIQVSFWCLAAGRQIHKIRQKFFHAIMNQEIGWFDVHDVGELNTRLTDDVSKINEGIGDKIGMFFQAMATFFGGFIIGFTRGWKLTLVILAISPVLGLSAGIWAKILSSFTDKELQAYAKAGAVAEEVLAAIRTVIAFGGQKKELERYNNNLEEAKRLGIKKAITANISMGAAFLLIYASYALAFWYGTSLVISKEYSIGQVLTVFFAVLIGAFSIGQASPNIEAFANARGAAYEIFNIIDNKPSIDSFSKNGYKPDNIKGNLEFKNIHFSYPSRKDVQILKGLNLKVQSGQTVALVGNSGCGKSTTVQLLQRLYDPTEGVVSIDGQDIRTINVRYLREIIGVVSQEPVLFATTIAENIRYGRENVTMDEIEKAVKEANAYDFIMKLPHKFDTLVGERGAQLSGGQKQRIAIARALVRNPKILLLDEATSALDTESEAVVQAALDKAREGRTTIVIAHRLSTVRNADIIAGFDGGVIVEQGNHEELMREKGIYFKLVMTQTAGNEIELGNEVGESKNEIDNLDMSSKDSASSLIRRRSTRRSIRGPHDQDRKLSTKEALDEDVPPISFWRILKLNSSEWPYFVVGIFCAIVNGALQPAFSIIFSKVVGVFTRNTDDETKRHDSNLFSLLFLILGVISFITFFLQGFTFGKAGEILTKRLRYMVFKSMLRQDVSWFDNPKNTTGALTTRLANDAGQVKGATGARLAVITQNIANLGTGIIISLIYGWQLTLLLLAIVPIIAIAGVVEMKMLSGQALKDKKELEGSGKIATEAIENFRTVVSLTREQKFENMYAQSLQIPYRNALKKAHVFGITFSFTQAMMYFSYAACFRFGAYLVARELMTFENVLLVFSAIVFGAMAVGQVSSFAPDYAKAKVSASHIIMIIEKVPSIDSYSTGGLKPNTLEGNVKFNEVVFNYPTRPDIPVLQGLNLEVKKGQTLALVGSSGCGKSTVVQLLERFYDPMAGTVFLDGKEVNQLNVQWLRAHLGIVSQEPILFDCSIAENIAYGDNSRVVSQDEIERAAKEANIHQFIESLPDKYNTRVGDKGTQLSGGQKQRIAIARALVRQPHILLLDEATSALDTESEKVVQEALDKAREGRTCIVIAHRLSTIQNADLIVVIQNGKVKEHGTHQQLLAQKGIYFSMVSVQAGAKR
T2 sequence (P08183 whole entry): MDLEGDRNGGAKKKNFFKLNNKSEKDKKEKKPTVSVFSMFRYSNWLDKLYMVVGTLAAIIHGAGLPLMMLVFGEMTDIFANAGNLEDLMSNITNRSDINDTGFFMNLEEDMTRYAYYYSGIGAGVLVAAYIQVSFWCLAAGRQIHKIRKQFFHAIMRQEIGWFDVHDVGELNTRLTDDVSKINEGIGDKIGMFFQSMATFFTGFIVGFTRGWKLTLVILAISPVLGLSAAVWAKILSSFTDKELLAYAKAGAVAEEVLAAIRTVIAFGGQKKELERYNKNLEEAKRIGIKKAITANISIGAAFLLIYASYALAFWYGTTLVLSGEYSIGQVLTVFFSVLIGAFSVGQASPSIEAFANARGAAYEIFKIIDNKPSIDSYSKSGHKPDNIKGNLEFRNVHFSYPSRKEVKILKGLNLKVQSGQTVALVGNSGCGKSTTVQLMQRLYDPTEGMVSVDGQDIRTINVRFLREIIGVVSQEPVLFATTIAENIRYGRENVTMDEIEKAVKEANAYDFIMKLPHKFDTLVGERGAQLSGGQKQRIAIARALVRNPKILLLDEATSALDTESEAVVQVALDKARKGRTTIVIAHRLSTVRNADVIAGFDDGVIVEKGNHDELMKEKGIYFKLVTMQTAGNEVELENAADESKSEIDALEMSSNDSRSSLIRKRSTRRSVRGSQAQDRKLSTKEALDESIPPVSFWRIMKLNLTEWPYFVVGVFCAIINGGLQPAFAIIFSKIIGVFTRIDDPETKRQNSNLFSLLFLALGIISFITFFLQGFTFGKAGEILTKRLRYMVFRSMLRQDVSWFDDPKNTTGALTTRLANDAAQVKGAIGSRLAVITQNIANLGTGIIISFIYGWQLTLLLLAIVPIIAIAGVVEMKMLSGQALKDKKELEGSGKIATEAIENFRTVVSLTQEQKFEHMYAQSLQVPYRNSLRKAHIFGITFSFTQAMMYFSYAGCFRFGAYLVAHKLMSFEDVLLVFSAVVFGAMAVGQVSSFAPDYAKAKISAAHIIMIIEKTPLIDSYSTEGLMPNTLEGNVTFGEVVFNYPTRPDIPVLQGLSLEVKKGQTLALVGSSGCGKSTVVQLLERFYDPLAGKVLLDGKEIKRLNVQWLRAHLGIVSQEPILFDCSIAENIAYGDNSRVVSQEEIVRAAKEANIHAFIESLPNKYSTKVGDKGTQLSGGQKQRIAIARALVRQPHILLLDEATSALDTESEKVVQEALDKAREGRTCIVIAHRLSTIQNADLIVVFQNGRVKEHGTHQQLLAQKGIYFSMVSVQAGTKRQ
T1 sequence (P21448 whole entry): as the sequence (P21448 whole entry) above
Chain of P-gp (human MDR1) (P08183 whole entry): as the sequence (P08183 whole entry) above
Protocol for P-gp (human MDR1): as §6, §7, §8, §4, §9

On to `CC(=O)[C@H]1CC[C@H]2[C@@H]3CCC4=CC(=O)CC[C@]4(C)[C@H]3CC[C@]12C` [Progesterone, reference compound], for which the Vmax % control in series [1] (ATP hydrolysis, Table 1) was 236 % control.

`COc1cccc2c1C(=O)c1c(O)c3c(c(O)c1C2=O)C[C@@](O)(C(C)=O)C[C@@H]3O[C@H]1C[C@H](N)[C@H](O)[C@H](C)O1` [Daunorubicin, reference compound]: the Vmax % control in series [1] (ATP hydrolysis, Table 1) was 170 % control.

`C=C[C@H]1C[N@@]2CC[C@H]1C[C@@H]2[C@@H](O)c1ccnc2ccc(OC)cc12` [Quinidine, quinidine, reference compound]: in series [1], the Vmax % control was determined as 239 % control.

`NC(=O)N1CCC(CC(=O)N2CCC(C3c4ncc(Br)cc4CCc4cc(Cl)cc(Br)c43)CC2)CC1` (stereo not drawn) [SCH66336]: the IC50 at 30 min on P-gp (human MDR1) was less than 3 µM. The figures for the IC50 (in series [2]; in series [3]; against P-gp) were approximately 9 µM, approximately 3 µM and approximately 11 µM, respectively. Further, the “potency in G185 cells relative to CR1R12 cell line” value in series [4] is “three times as potent”. Moreover, the “extent of inhibition of DNR transport” value in series [5] is “exceeding that of verapamil”. The “effect on rate of ATP hydrolysis relative to baseline rate” value in series [1] is “concentration-dependent decrease”. Moreover, the Vmax was approximately 28 % baseline in series [1] (ATP hydrolysis, Example B results text) and 28 % of control in series [1] (ATP hydrolysis, FIG. 2 legend).
